Assays:
[1] = tested on: bacteriophages from swabs of hands, masks and work surfaces; test: Bacterial DNA in blood (16S RT-PCR) after water with phages from treated objects and surfaces (Example 5); format: in vivo; conditions: average of 3 experiments
Method: Fourteen days after including any product enriched with bacteriophage mixture into the mice diet, the mice blood was aseptically taken and bacterial DNA content in the bloodstream was evaluated. Increased DNA content in blood indicates an increase of intestinal permeability reflecting increased translocation of microorganisms from the gastro-intestinal tract into the systemic circulation. (See Deitch E. A., et al. Effect of hemorrhagic shock on bacterial translocation, intestinal morphology, and intestinal permeability in conventional and antibiotic-decontaminated rats. Critical care medicine 18.5 (1990), 529-536). DNA was isolated with a kit for the isolation of nucleic acids DNAQamp Qiagen. Quantitative determination of DNA was carried out by RT-PCR using universal bacterial primers for 16S rRNA (upb2 with a universal FAM-probe for bacteria: (5FAM) aat acg ttc ccg ggt ctt gta cac acc gcc cgt cac act att (3′RTQ1) (SEQ ID NO: 6) and DG74 5′aac tgg agg aag gtg ggg at 3′ (SEQ ID NO: 7)) on Bio-Rad CFX96 amplifier. Reaction conditions: 95° C.—5 min. 45 cycles 95° C.—15 sec, 60° C.—30 sec, fluorescence reading.
Bacteriophages were obtained from the swabs from hands and masks of medical staff and work surfaces in surgical clinics. The hands, masks and surfaces were subjected to various kinds of treatments in order to reduce the amount of phages on them. After the treatment, phages were isolated by the Gratia's method (Kropinski et al. “Enumeration of bacteriophages by double agar overlay plaque assay.” Bacteriophages: Methods and Protocols, Volume 1: Isolation, Characterization, and Interactions, Humana Press, 2009, vol. 501, 69-76). Test material (swabs) was filtered through 0.45 μm Millipore membrane filters. The resulting filtrate was incubated at 60° C. for 60 minutes to inactivate bacteria and was added to 100 μL of water. The resulting solutions were given to animals with water, and the development of an increased intestinal permeability was evaluated as described in Example 4, above. The animals were divided into the following treatment groups:
Group “PHG”: water with the addition of bacteriophages obtained from objects and surfaces treated with a 0.1% (1000 mg/L) polyhexamethylene guanidine derivative preparation. The polyhexamethylene guanidine preparation used in this treatment was prepared by condensation polymerization of hexamethylenediamine with guanidine salt and hydrazine hydrate, as described in U.S. Provisional Pat. Appl. No. 62/510,446, U.S. Pat. No. 8,993,712, U.S. Pat. Appl. Pub. No. 2017/0013838 and Int. Pat. Appl. Pub. No. WO2016/118043.
Group “Photocatalyst”: water with the addition of bacteriophages obtained from objects and surfaces treated with TiO2 and activated by ultraviolet radiation. […]

[2] = tested on: bacteriophages isolated from waste water; test: Bacterial DNA in blood (16S RT-PCR) after diet with phage-enriched, treated products (Example 4); format: in vivo, Wistar rats; conditions: blood after 14 days, average of 3 experiments
Method: As a source for the isolation of bacteriophages, waste water from canalization was used. The phages were isolated by Gratia's method (Kropinski et al. “Enumeration of bacteriophages by double agar overlay plaque assay.” Bacteriophages: Methods and Protocols, Volume 1: Isolation, Characterization, and Interactions, Humana Press, 2009, vol. 501, 69-76). Test material (waste water) was filtered through 0.45 μm Millipore membrane filters. The resulting filtrate was incubated at 60° C. for 60 minutes to inactivate bacteria and was added to water or products (e.g., milk, yogurt, curd, cheese, minced meat, minced chicken, fish, fruit mix, vegetable mixture) in 100 μL volume. The resulting food products enriched with phages were included in the mice diet. […]
Fourteen days after including any product enriched with bacteriophage mixture into the mice diet, the mice blood was aseptically taken and bacterial DNA content in the bloodstream was evaluated. […] Quantitative determination of DNA was carried out by RT-PCR using universal bacterial primers for 16S rRNA (upb2 with a universal FAM-probe for bacteria: (5FAM) aat acg ttc ccg ggt ctt gta cac acc gcc cgt cac act att (3′RTQ1) (SEQ ID NO: 6) and DG74 5′aac tgg agg aag gtg ggg at 3′ (SEQ ID NO: 7)) on Bio-Rad CFX96 amplifier. […] 45 cycles 95° C.—15 sec, 60° C.—30 sec, fluorescence reading.

[3] = tested on: bacteriophages isolated from the feces of obese mice; test: Body weight after 21 weeks of drinking water with phages from obese mice (Example 6); format: in vivo; conditions: treated drinking water with phages from obese mice; standard diet
Method: To assess a possibility of preventing changes in the GI microbiota leading to obesity by limiting bacteriophage entry from the environment, bacteriophages were isolated from the feces of Group #1 mice in which obesity was modeled. The obtained phages were added to drinking water of mice (age 12 weeks) from Group #2 for 21 weeks. The diet of the animals remained standard, i.e., not a high fat diet. The mice in Group #2 were divided into the following treatment groups:
Group “Filtration”: water with the addition of bacteriophages, filtered through 0.45 μm Millipore membrane filters.
Group “Pascalization”: water with the addition of bacteriophages, treated with high pressure (340 MPa).
Group “Prototype”: water with the addition of bacteriophages, treated with potassium nitrate.

[4] = tested on: hairless mice; test: General skin elasticity after 36 weeks of water application (Example 7); format: in vivo; conditions: vs untreated left part of the back
Method: In the experiment, hairless mice, 5 males and 5 females, (C57BL/6 albino/hairless, The Jackson Laboratories) of both sexes were used. Starting from 4 weeks of age, animals were daily treated with tap water or mineral water from artesian source, the water applied on the right half of the back. After 36 weeks, skin condition parameters were evaluated (SoftPlusCPU (Callegaris.p.a.)) in the application area, compared with the untreated left part of the back. Animals were divided into the following treatment groups:
Group “Filtration”: water filtered through 0.22 μm Millipore membrane filters.
Group “Electron”: water treated with an electron flow.
Group “Prototype”: water treated with potassium nitrate.

| Compound | Number of cycles during which bacterial DNA appears (Cq) [1] [cycles] | Number of cycles during which bacterial DNA appears (Cq) ([2]; phages added to cheese) [cycles] | Number of cycles during which bacterial DNA appears (Cq) ([2]; phages added to water) [cycles] | Animal body weight after 21 weeks [3] [g] | Change in parameter of general skin elasticity ([4]; Tap water) [%] | Change in parameter of general skin elasticity ([4]; Well water) [%] |
| --- | --- | --- | --- | --- | --- | --- |
| O=[O+][O-] [Ozone, ozone] | 27.74 |  |  |  |  |  |
| O=[N+]([O-])[O-].[K+] [Prototype, potassium nitrate] | 17.92 | 19.79 | 17.28 | 46 | −42.9 | −41.4 |
| [Cu+2] [Metals, Cu^2+] | 29.51 |  |  |  |  |  |
| OO [Peroxide, H2O2] | 31.65 |  |  |  |  |  |

Source: patent publication US20260091068A1, “METHODS FOR TREATING AND PREVENTING DISEASES” (priority 2017, published 2026)
